Experimental data published in patent EP3878447A1, “BETA ADRENERGIC RECEPTOR ANTAGONISTS” (InterAx Biotech AG, priority 2020, dated 2021).
Structures can show the parent of a compound that is named as a salt. Where two headings read alike, the source gives them in different places.

Key:
B2AR [1] = biological target: T1, B2AR (Homo sapiens, UniProt P07550); assay: Heterologous competition radioligand binding assay ([3H]-DHA) on SNAP-B2AR HEK membranes; conditions: equilibrium competition binding with 1 nM [3H]-DHA, 120 min RT, mean ± SD
Source text: Radioactivity was quantified using single photon counting on a TopCount NXT microplate scintillation and luminescence counter (Packard).

B2AR [2] = biological target: T1, B2AR
B1AR = B1AR (Homo sapiens, UniProt P08588); assay: Real-time cAMP inhibition assay in SNAP-B1AR-EPAC HEK cells; conditions: SNAP-B1AR-EPAC HEK cells stimulated with 50 nM Isoproterenol for 10 min, compound for additional 40 min, AUC of EPAC FRET ratio; mean ± SD
B2AR [3] = biological target: T1, B2AR; assay: biochemical
B2AR [4] = biological target: T1, B2AR; assay: Saturation binding of [3H]-DHA on SNAP-B2AR HEK membranes; design: membranes prepared from it; conditions: 5 µg SNAP-B2AR HEK membranes, specific binding; Mean ± SD, n=3; read-out: equilibrium dissociation constant (KD)

Sequence of B1AR (P08588 whole entry): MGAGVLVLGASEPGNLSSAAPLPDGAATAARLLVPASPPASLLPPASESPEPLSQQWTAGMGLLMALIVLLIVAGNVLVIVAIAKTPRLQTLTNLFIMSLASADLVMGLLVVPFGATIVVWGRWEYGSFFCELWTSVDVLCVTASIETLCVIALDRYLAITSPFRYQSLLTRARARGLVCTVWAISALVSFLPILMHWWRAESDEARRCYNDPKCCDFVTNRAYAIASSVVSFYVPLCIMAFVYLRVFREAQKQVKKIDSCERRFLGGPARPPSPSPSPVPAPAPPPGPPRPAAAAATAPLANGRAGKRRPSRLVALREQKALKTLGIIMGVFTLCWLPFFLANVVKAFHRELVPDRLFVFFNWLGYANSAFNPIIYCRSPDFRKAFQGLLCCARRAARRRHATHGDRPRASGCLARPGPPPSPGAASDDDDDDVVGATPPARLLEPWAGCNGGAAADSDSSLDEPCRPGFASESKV

| Compound | pKi (B2AR [1]) | Ki (B2AR [2]) [nM] | Ki (B2AR [3]) [nM] | other results |
| --- | --- | --- | --- | --- |
| 4-[2-(aminomethyl)-2,3-dihydro-1-benzofuran-7-yl]benzamide [Compound 7] | 6.0 ± 0.1 | 1260 |  | pIC50 (B1AR): 4.6 ± 0.5 |
| 5-[2-(aminomethyl)-2,3-dihydro-1-benzofuran-7-yl]pyridin-2-amine [Compound 5] | 5.5 ± 0.1 | 2510 |  |  |
| NCC1Cc2cccc(-c3ccc(O)cc3)c2O1 (stereo not drawn) [Compound 4, 4-[2-(aminomethyl)-2,3-dihydro-1-benzofuran-7-yl]phenol] |  |  | 100 to 1000 |  |
| COc1ccc(-c2cc(F)cc3c2OC(CN)C3)cn1 (stereo not drawn) [Compound 6, 1-[5-fluoro-7-(6-methoxypyridin-3-yl)-2,3-dihydro-1-benzofuran-2-yl]methanamine] |  |  | 100 to 1000 |  |
| NCC1Cc2cccc(-c3ccc(O)c(F)c3)c2O1 (stereo not drawn) [Compound 8, 4-[2-(aminomethyl)-2,3-dihydro-1-benzofuran-7-yl]-2-fluorophenol] |  |  | 100 to 1000 |  |
| CCCc1ccccc1OC[C@@H](O)CNC(C)C [[^3H]-DHA, Dihydroalprenolol Hydrochloride, Levo-[Ring, Propyl-3H(N)]-] |  |  |  | Kd (B2AR [4]): 0.3 ± 0.1 nM |
